Assay results published in US11576943B2, “Functional food composition having cranial nerve protection effect and blood flow improvement effect” (chzin Co., Ltd., priority 2020, dated 2023).
Marks after values point to notes of the source that are not given here.

Tests used:
rats = conditions: administered orally to rats; cited from earlier work
[1] = cited from earlier work
[2] = tested on: transient local cerebral ischemia animal model; assay: Cranial neuroprotective action by oral administration in transient local cerebral ischemia animal model (MCAO); assay type: in vivo, sprague-dawly male rats
Description: The measurement of cranial neuroprotective action by oral administration of a sample in the transient local cerebral ischemia animal model was carried out as follows according to a known method.
Experimental animals were 7-week-old sprague-dawly male rats having a weight of 260 to 270 g and the experimental animals were adapted in the breeding room for 7 days before use under the environment in which the contrast cycle was controlled automatically by 12 hours. The temperature of the breeding room was maintained at 23±2° C., the humidity was 55±10%, and food and water were freely ingested.
In order to measure the neuroprotective action according to the oral administration of the sample, an animal model of cerebral ischemia was created. The middle cerebral artery occlusion (MCAO) surgery was performed to create the animal model of cerebral ischemia. […]
In order to measure the neuroprotective action of the sample according to the oral administration, the brain was excised 24 hours after the middle cerebral artery occlusion and stained with 2,3,5-triphenyltetrazolium chloride. […] The area of cerebral infarction (infarct area, mm^2) was measured using a computerized image analyzer, and the infarct volume (mm^3) was calculated by multiplying the total sum of the infarct area of each section by the thickness of the section. The measured values were expressed as mean±SEM (*p<0.05, **p<0.01).

Structure (SMILES)	LD50 (rats) [mg/kg]	solubility in water [1]	Cerebral infarct volume (mm^3) ([2]; 2 hours after induction of cerebral ischemia and 2 hours after reperfusion, brain excised 24 hours after MCAO, mean±SEM)	Cranial nerve protection effect (%) ([2]; 24 hours after MCAO, relative to physiological saline group)
CC(C)[C@@H]1CC[C@@H](C)C[C@H]1O (racemic) [dl-menthol]	3180	rarely dissolved in water	–	–
CC1=NN(c2ccccc2)C(=O)C1 [MCI-186]	–	–	184.2 ± 17.3** mm^3	47.71
